Reference: patent US9845327B2, “Treatment of proteinopathies” (THE GENERAL HOSPITAL CORPORATION, priority 2011, dated 2017)

B1: GCase polypeptide: myc-tagged GCase polypeptide expression construct transfected into Hela cells (protein, UniProt P04062 40-536, looked up)
Lysosomal acid …: ARPCIPKSFGYSSVVCVCNATYCDSFDPPTFPALGTFSRYESTRSGRRMELSMGPIQANHTGTGLLLTLQPEQKFQKVKGFGGAMTDAAALNILALSPPAQNLLLKSYFSEEGIGYNIIRVPMASCDFSIRTYTYADTPDDFQLHNFSLPEEDTKLKIPLIHRALQLAQRPVSLLASPWTSPTWLKTNGAVNGKGSLKGQPGDIYHQTWARYFVKFLDAYAEHKLQFWAVTAENEPSAGLLSGYPFQCLGFTPEHQRDFIARDLGPTLANSTHHNVRLLMLDDQRLLLPHWAKVVLTDPEAAKYVHGIAVHWYLDFLAPAKATLGETHRLFPNTMLFASEACVGSKFWEQSVRLGSWDRGMQYSHSIITNLLYHVVGWTDWNLALNPEGGPNWVRNFVDSPIIVDITKDTFYKQPMFYHLGHFSKFIPEGSQRVGLVASQKNDLDAVALMHPDGSAVVVVLNRSSKDVPLTIKDPAVGFLETISPGYSIHTYLWRRQ
modifications: myc tag
notes: myc-tagged GCase polypeptide expression construct transfected into Hela cells

What was measured:
[1] = tested on: primary cortical neurons; assay: Neurotoxicity assessment (neurofilament immunostaining, neuronal volume) in primary cortical neurons expressing human WT α-synuclein; type: cell-based
[2] = tested on: α-synuclein; assay: α-synuclein solubility and oligomers (sequential extraction/western blot, native SEC, immunostaining) in primary cortical neurons; type: cell-based
Procedure: (§1) As discussed above, the increased α-synuclein levels and toxicity that occur with GCase polypeptide depletion may result from generalized lysosomal inhibition or may be due to alterations in GlcCer lipid metabolism. To distinguish between these two possibilities, in this Example, the lysosomal protein degradation was inhibited with leupeptin in WT α-synuclein-expressing neurons and the neurotoxicity was assessed. […] Thus, despite similar effects on the total α-synuclein levels by leupeptin or GCase polypeptide KD, only GCase polypeptide KD increased the steady-state levels of soluble HMW α-synuclein. In this Example, sequential extraction followed by SDS-PAGE/Coomassie brilliant blue (CBB) staining was used to determine the effect of leupeptin treatment on the solubility of total cellular proteins.
(§2) Cells were harvested in Triton X-100 lysis buffer. The extracts were centrifuged at 100,000×g for 30 min. The pellets were extracted in 2% SDS buffer. Similar procedures were utilized for mouse and human brain tissues, using 20 volumes of Triton X-100 lysis buffer. Samples were loaded onto SDS-PAGE gels or subjected to native SEC followed by western blot analysis as described below (Mazzulli et al., J. Neurosci. 26:10068, 2006).
Infected cortical cells (8,000,000 cells/10 cm plate) were harvested in Triton X-100 lysis buffer and 100,000×g Triton X-100 soluble lysate was loaded onto a Superdex 200 HR 10/300 column (GE healthcare) as described previously (Mazzulli et al., J. Neurosci. 26:10068, 2006). Quantification of α-synuclein oligomers has been described in detail previously (Tsika et al., J. Neurosci. 30: 3409, 2010).
Cortical cells grown on poly-D-lysine coated coverslips in 12 well clusters were washed very briefly in warm PBS followed by rapid fixation in PBS-buffered 4% paraformaldehyde (w/v) for 15 min. Cells were incubated with PBS containing 0.3% (v/v) Triton X-100 overnight at 4° C., then blocked in 2% (w/v) bovine serum albumin (BSA) (Sigma-Aldrich, # A-7906) and 10% normal goat serum (Jackson Immunoresearch Laboratories, #005-000-121) in PBS-Triton X-100 for 1 hr. Primary antibodies were diluted into blocking buffer (see above for dilutions), incubated overnight at 4° C., and washed extensively in PBS-Triton X-100. […] Coverslips were mounted onto glass slides with 10 μl of 4,6-diamidino-2-phenylindole dihydrochloride (DAPI)-containing Fluoromount G (Southern Biotech, #0100-20) and visualized with a fluorescence microscope. For quantification of α-synuclein and LC3 immunostaining, pixels from equal-time exposed images were quantified using Adobe Photoshop software CS2 (Adobe Systems), and normalized to DAPI.

[3] = tested on: total cellular proteins; assay: Total cellular protein solubility by sequential extraction, SDS-PAGE and Coomassie brilliant blue staining; type: cell-based, mouse; details: leupeptin treatment
Procedure: as §1, §2

[4] = tested on: LC3-II; assay: LC3-II western blot in primary cortical neurons; type: cell-based, mouse; details: leupeptin compared with GCase polypeptide KD
Procedure: as §1
Most materials for SDS-PAGE were obtained from Invitrogen (NuPAGE system). […] Blots were blocked in Odyssey blocking buffer (Li-Cor biosciences) containing 0.05% Tween, or 5% non-fat dry milk in TBS-T 0.2%, followed by incubation with primary antibodies (see above for dilutions), and detected with anti-mouse or -rabbit IgG conjugated to IRDye 680 or 800 (1:10,000, Li-Cor biosciences). […] Any nonspecific bands detected were not included in densitometric analyses. […]

[5] = tested on: α-synuclein/LAMP1 colocalized puncta; assay: Immunostaining of α-synuclein and LAMP1, condensed nuclei count in primary neurons; type: cell-based
Procedure: Next in this Example, the effect of GlcCer on α-synuclein fibril formation was assessed under acidic conditions (pH 5.0, 37° C.), to simulate a lysosome-like environment in vitro because the neuronal culture data had indicated increased colocalization of α-synuclein with LAMP1 upon GCase polypeptide KD (FIGS. 5H and 5I). […] An increased frequency of condensed nuclei in WT α-synuclein/GC-depleted cells, compared to WT α-synuclein/scrb shRNA cells (panel H), was consistent with a decline in neuronal viability. […] The α-synuclein detected in P2 was in the form of a T-sol 18 kDa monomer (panel I, left), as well as T-insoluble monomer and multimers (panel I, right).
Cortical cells grown on poly-D-lysine coated coverslips in 12 well clusters were washed very briefly in warm PBS followed by rapid fixation in PBS-buffered 4% paraformaldehyde (w/v) for 15 min. […] Coverslips were mounted onto glass slides with 10 μl of 4,6-diamidino-2-phenylindole dihydrochloride (DAPI)-containing Fluoromount G (Southern Biotech, #0100-20) and visualized with a fluorescence microscope. For quantification of α-synuclein and LC3 immunostaining, pixels from equal-time exposed images were quantified using Adobe Photoshop software CS2 (Adobe Systems), and normalized to DAPI.

[6] = tested on: primary cortical neurons; assay: Proteolysis of long-lived proteins by radioactive pulse-chase in primary cortical neurons; type: cell-based, mouse; details: added to GCase polypeptide KD
Procedure: In this Example, a test was conducted to determine whether GCase polypeptide KD affects a lysosomal degradation pathway. In this test, neurons were treated with the well-established lysosomal inhibitors ammonium chloride (NH4Cl) and leupeptin.
Proteolysis of long-lived proteins was determined by radioactive pulse-chase using ^3H-leucine. This procedure was performed as described previously (Kaushik et al. Methods Enzymol. 452: 297, 2009). Briefly, cortical cells were grown in 24 well clusters seeded at 33000 cells/well and infected at moi 3 with scrb or GCase polypeptide shRNA expressing lentiviral vectors. On dpi 4, ^3H-leucine (PerkinElmer, # NET460A001 MC, final 5 μCi/ml) was added in standard neurobasal medium containing B27 for 2 days to trace label proteins. […] Samples were centrifuged at 20,000×g for 20 min, 4° C., and the radioactivity was measured in 5 ml of scintillation cocktail using a Beckman LS 1701 liquid scintillation counter (Beckman Instruments). Precipitated protein pellets were extracted in 200 μl of Na deoxycholate, 0.1 M NaOH, and radioactivity was determined. Percent proteolysis was calculated as described in detail elsewhere (Kaushik et al. Methods Enzymol. 452: 297, 2009). […]

[7] = tested on: Hela cells; assay: Lysosomal proteolysis by radioactive pulse-chase in transfected Hela cells; type: cell-based
Procedure: (§3) Further in this Example, it was assessed whether GCase polypeptide overexpression had the ability to directly enhance lysosomal proteolysis in a non-neuronal cell line. Hela cells were transfected with a myc-tagged GCase polypeptide expression construct and lysosomal proteolysis was assessed by radioactive pulse-chase (FIG. 17A). […] This effect was also confirmed through a different assay, by measuring the effect of GCase polypeptide overexpression on the activity of the lysosomal protease cathepsin B. A cell-permeable fluorescent-tagged cathepsin B substrate (MAGIC RED cathepsin detection kit, Immunochemistry Technologies) was added to transfected Hela cells, and degradation of this substrate was determined in living cells after substrate wash-out.

[8] = tested on: α-synuclein; assay: α-synuclein levels by western blot in human midbrain iPS dopamine neurons; type: cell-based; details: lentiviral overexpression, moi 5, human PD dopamine neurons (Coriell line ND27760, SNCA triplication)
Text: In this Example, it was investigated whether enhancement of lysosomal enzyme trafficking through stimulation of the secretory pathway would result in increased lysosomal function and reduction of α-synuclein. Therefore, in this Example the small GTPase Rab1a polypeptide was overexpressed by lentiviral infection in iPS neurons to stimulate enzyme trafficking. Rab1a polypeptide has been established to function specifically at the ER-Golgi step of the secretory pathway (Duvernay et al., Cell Signal 17: 1457, 2005). The effect of Rab1a polypeptide was determined in human iPS dopamine neurons derived from reprogrammed fibroblasts of a PD patient (Coriell line ND27760). These cells harbor a triplication mutation in the genomic region containing SNCA which encodes for α-synuclein, leading to overexpression of the protein and lysosomal trafficking deficits. […] Further in this Example, it was determined if Rab1a polypeptide enhances lysosomal function by monitoring cathepsin B activity.
It was also shown in this Example that treatment with the GCase polypeptide activator increased the levels of total GCase protein and increased the post-ER forms, indicating enhancement of flux to the lysosome (FIG. 19B).
Most materials for SDS-PAGE were obtained from Invitrogen (NuPAGE system). Protein lysates were boiled in sample buffer (20 mM Tris, 1% (v/v) glycerol, 180 mM β-mercaptoethanol, 0.003% (w/v) bromophenol blue, 2% (w/v) SDS, pH 6.8), resolved on 4%-12% Bis-Tris polyacrylamide precast gels in a MOPS-SDS running buffer, or 4%-12% Tris-Glycine gels. 10% Tris-Glycine gels were utilized for some GCase polypeptide western blot's (FIGS. 13B, 13D, and 13E, and FIGS. 14C and 14F). […] Blots were blocked in Odyssey blocking buffer (Li-Cor biosciences) containing 0.05% Tween, or 5% non-fat dry milk in TBS-T 0.2%, followed by incubation with primary antibodies (see above for dilutions), and detected with anti-mouse or -rabbit IgG conjugated to IRDye 680 or 800 (1:10,000, Li-Cor biosciences). […] Any nonspecific bands detected were not included in densitometric analyses. […]

[9] = tested on: cathepsin B; assay: Cathepsin B activity in living transfected Hela cells (fluorescent substrate); type: cell-based; details: overexpression in transfected Hela cells, versus GFP
Procedure: as §3
In this Example, it was investigated whether enhancement of lysosomal enzyme trafficking through stimulation of the secretory pathway would result in increased lysosomal function and reduction of α-synuclein. Therefore, in this Example the small GTPase Rab1a polypeptide was overexpressed by lentiviral infection in iPS neurons to stimulate enzyme trafficking. […] The effect of Rab1a polypeptide was determined in human iPS dopamine neurons derived from reprogrammed fibroblasts of a PD patient (Coriell line ND27760). […] Further in this Example, it was determined if Rab1a polypeptide enhances lysosomal function by monitoring cathepsin B activity.

[10] = leupeptin-treated WT α-synuclein-expressing neurons

Molecule	neurotoxicity at later time points ([1]; >12 dpi)	α-synuclein-mediated neurotoxicity ([1]; WT α-synuclein-expressing neurons, 50 μM leupeptin, 7 dpi)	T-insoluble α-synuclein [2, 10]	amount of soluble α-synuclein [2, 10]	total α-synuclein immunostaining intensity ([2]; leupeptin-treated compared to control cells)	soluble HMW α-synuclein by SEC ([2]; leupeptin-treated neurons)	levels of total insoluble proteins, fold increase [3] [fold]	levels of LC3-II [4]	percentage of cells with condensed nuclei compared to untreated control cells ([5]; 7 dpi)	percentage of cells containing α-synuclein/LAMP1 colocalized puncta ([5]; leupeptin-treated cells) [%]	proteolysis of long-lived proteins in GCase polypeptide shRNA-treated cells [6]	effect of lysosomal inhibitors on the proteolysis increase by GCase polypeptide overexpression [7]	α-synuclein levels [8]	cathepsin B activity [9]	increase in proteolysis compared to GFP control transfected cells ([7]; myc-tagged GCase polypeptide expression construct) [%]
CC(=O)N[C@@H](CC(C)C)C(=O)N[C@@H](CC(C)C)C(=O)N[C@H](C=O)CCCNC(=N)N [leupeptin]	did result in neurotoxicity	did not enhance	increase	no change	increase	not detectable	~2	comparable increase	did not alter	~90	did not additively inhibit	completely reversed			
Rab1a polypeptide: small GTPase overexpressed by lentiviral infection or transfection; SEQ ID NO. 13													dramatic reduction	increase	
B1														increased	40
